Data set [1] can be described thus: analgesic activity, general statements. It counts as in vivo. The note with it: in words.
The nature of data set [2]: mouse writhing assay (acetic acid), analgesic activity. It is filed as in vivo, mouse (Cox standard males). The note with it: for ED50 / PT (peak analgesic time), Mouse Writhing, Oral / PT (peak analgesic time), Mouse Writhing, Subcutaneous: mouse; for ED50: dose giving significant peak analgesic effect in 50 percent of test animals; for PT (peak analgesic time), Mouse Writhing, Oral / PT (peak analgesic time), Mouse Writhing, Subcutaneous: time after dosing of maximum analgesic response. The protocol: Analgesic activity for representative compounds of the instant invention was determined with two standard animal techniques. The mouse writhing assay used was a modification of the method wherein frequency of writhing [Hendershot and Sorsaith, J. Pharm. Exp. Ther. 125, 237 (1959)] is observed after intra peritoneal administration of 0.6 percent acetic acid [Koster et al., Fed. Proc. Soc. Expt. Biol. 18, 412 (1959)]. The mice were Cox standard males weighting 20-22 gm. The number of writhes was determined for each of five mice during the period 5-15 minutes after acetic acid treatment. The percent inhibition due to drug treatment was determined by comparison with control mice.
(§1) Table 1 below gives the results of testing representative compounds of this invention as analgesics by the above methods. The first four columns in Table 1 describe the particular compound tested. The next eight columns give the mouse writhing results and the rat tail jerk results both by oral and subcutaneous administration. The columns headed PT ("Peak Analgesic Time") give the time in minutes after dosing at which the maximum analgesic responses are measured. The columns headed "ED50 (mg./kg.)" give the doses (ED50) in milligrams per kilogram (mg./kg.) of body weight that produce a significant peak analgesic effect in 50 percent of test animals.

Data set [3] in a line: rat tail jerk assay, analgesic activity. It is filed as in vivo, rat (Sprague-Dawley females). Particulars: for ED50: dose giving significant peak analgesic effect in 50 percent of test animals; for PT (peak analgesic time), Rat Tail Jerk, Oral / PT (peak analgesic time), Rat Tail Jerk, Subcutaneous: time after dosing of maximum analgesic response.
Source text: The other analgesic method was the rat tail jerk assay described by Robbins, J. Amer. Pharm. Assoc. Sci. Ed., 44, 497 (1955). The rats were Sprague-Dawley females weighing 70-90 g. Briefly, the tail was held on a temperature controlled tail rest near a nichrome resistance wire through which a current could flow. A switch used to start the flow of current to heat the wire simultaneously started a timer. When a jerk of the tail was detected by the operator, the switch was released and the latency of the response was recorded as the "reaction time." The tail was placed near the hot wire stimulus for a maximum duration of 30 seconds. Twenty rats were tested as a group in a randomized order. At least five rats were used for each treatment and each rat was dosed and tested only once.
as §1

For data set [4] the following is noted: cited from earlier work.
Where [5] appears, read: oral, read-out: ED50, Mouse Writhing, Oral.
Where [6] appears, read: sc, subcutaneous, read-out: ED50, Mouse Writhing, Subcutaneous.
Setting [7] is: oral, read-out: ED50, Rat Tail Jerk, Oral.
Where [8] appears, read: sc, subcutaneous, read-out: ED50, Rat Tail Jerk, Subcutaneous.

Counter-ions that a name gives are not always drawn.

Usually ED50 stands for the dose that gives a 50% effect, or the effect in half of the subjects.

With `CN(C)C(c1ccccc1)C1COCOC1` (single isomer, unassigned) [1-N,N-dimethyl-α-phenyl-m-dioxane-5-methylamine], in data set [1], the analgesic activity entry is “analgesically active”.
Regarding `CN(C)C(c1ccccc1)C1COCOC1` (single isomer, unassigned) [l C6 H5, H, HCl, l-N,N-dimethyl-α-phenyl-m-dioxane-5-methylamine hydrochloride], the ED50 was 16 mg/kg in data set [2] (setting [5]), 6 mg/kg in data set [2] (setting [6]), 10 to 20 mg/kg in data set [3] (setting [7]) and 7 mg/kg in data set [3] (setting [8]). In addition, the “PT (peak analgesic time), Mouse Writhing, Oral” value (“PT … Mouse Writhing, Oral” below) in data set [2] (oral) turned out to be 15 min. Further, the “PT (peak analgesic time), Mouse Writhing, Subcutaneous” value (“PT … Mouse Writhing, Subcutaneous” for short) in data set [2] (subcutaneous) stood at 15 min. In addition, in data set [3] (oral), the “PT (peak analgesic time), Rat Tail Jerk, Oral” value (from here on “PT … Rat Tail Jerk, Oral”) was found to be 15 min. In data set [3] (subcutaneous), the “PT (peak analgesic time), Rat Tail Jerk, Subcutaneous” value (“PT … Rat Tail Jerk, Subcutaneous” for short) stood at 15 min.
Regarding `c1ccc(C2(c3ccccc3)OC[C@H]([C@@H]3CCCCN3)O2)cc1` [Dexoxadrol, d-2,2-diphenyl-4-(2-piperdyl)-1,3-dioxolane hydrochloride], in data set [4], the “analgesic activity (literature)” value was “mild analgesic” and the “side effects (literature)” value is reported as “high incidence of psychotomimetic side effects”.
As to `CC1OCC(CN(C)C)O1` (stereo not drawn) [N,N,2-Trimethyl-1,3-dioxolane-4-methylamine], in data set [4], the “analgesic activity (literature)” value is “mild analgesic” and the “side effects (literature)” value was “cholinergic side effects”.
On to `CN(C)C(c1cccnc1)C1COCOC1.Cl.Cl` (stereo not drawn) [dl 3-pyridyl, H, 2HCl, N,N-dimethyl-α-(3-pyridyl)-m-dioxane-5-methylamine dihydrochloride], for which the ED50 in data set [2] (setting [5]) is 25 mg/kg; in data set [2] (setting [6]), 10 mg/kg; in data set [3] (setting [7]) it was 7 mg/kg; in data set [3] (setting [8]), 7 mg/kg. Further, the “PT … Mouse Writhing, Oral” value in data set [2] (oral) worked out at 30 min. Moreover, the “PT … Mouse Writhing, Subcutaneous” value in data set [2] (subcutaneous) was 30 min. Also, the “PT … Rat Tail Jerk, Oral” value in data set [3] (oral) was 15 min. Also, the “PT … Rat Tail Jerk, Subcutaneous” value in data set [3] (subcutaneous) came to 15 min.
For the compound `Cc1ccc(C(C2COCOC2)N(C)C)cc1.O=C(O)/C=C\C(=O)O` (stereo not drawn) [dl 4-CH3 --C6 H4, H, Maleate, N,N-dimethyl-α-(4-methylphenyl)-m-dioxane-5-methylamine maleate], the ED50 was 110 mg/kg in data set [2] (setting [5]), 20 mg/kg in data set [2] (setting [6]), 60 mg/kg in data set [3] (setting [7]) and 8 mg/kg in data set [3] (setting [8]). In addition, in data set [2] (oral), the “PT … Mouse Writhing, Oral” value was 45 min. Also, in data set [2] (subcutaneous), the “PT … Mouse Writhing, Subcutaneous” value worked out at 30 min. In addition, the “PT … Rat Tail Jerk, Oral” value in data set [3] (oral) was determined as 45 min. For the same compound, the “PT … Rat Tail Jerk, Subcutaneous” value in data set [3] (subcutaneous) was found to be 30 min.
For `CCC1OCC(C(c2ccccc2)N(C)C)CO1` (stereo not drawn) [dl C6 H5, C2 H5, N,N-dimethyl-2-ethyl-α-phenyl-m-dioxane-5-methylamine], the “duration of analgesic action in mice” value in data set [2] (mice) was “long acting in mice”. Besides, the ED50 in data set [2] (setting [5]) is 23 mg/kg; in data set [2] (setting [6]) it was 19 mg/kg; in data set [3] (setting [7]), 21 mg/kg; in data set [3] (setting [8]), 3.4 mg/kg. For the same compound, the “PT … Mouse Writhing, Oral” value in data set [2] (oral) came out at 75 min. The “PT … Mouse Writhing, Subcutaneous” value in data set [2] (subcutaneous) was 75 min. Moreover, the “PT … Rat Tail Jerk, Oral” value in data set [3] (oral) was found to be 15 min. Also, the “PT … Rat Tail Jerk, Subcutaneous” value in data set [3] (subcutaneous) amounted to 15 min.
In the case of `CC1OCC(C(c2ccccc2)N(C)C)CO1` (stereo not drawn) [dl C6 H5, CH3, N,N,2-Trimethyl-α-phenyl-m-dioxane-5-methylamine], the ED50 in data set [2] (setting [5]) stood at 19 mg/kg; in data set [2] (setting [6]), 3.6 mg/kg; in data set [3] (setting [7]) it was 12 mg/kg; in data set [3] (setting [8]) it was 2.8 mg/kg. Besides, the “PT … Mouse Writhing, Oral” value in data set [2] (oral) is 15 min. Moreover, the “PT … Mouse Writhing, Subcutaneous” value in data set [2] (subcutaneous) turned out to be 15 min. Moreover, in data set [3] (oral), the “PT … Rat Tail Jerk, Oral” value is 15 min. Also, in data set [3] (subcutaneous), the “PT … Rat Tail Jerk, Subcutaneous” value worked out at 20 min.
Take `CN(C)C(c1ccccc1)C1COCOC1.Cl` (stereo not drawn) [dl C6 H5, H, HCl, N,N-dimethyl-α-phenyl-m-dioxane-5-methylamine hydrochloride]: the ED50 amounted to 28 mg/kg in data set [2] (setting [5]), 15 mg/kg in data set [2] (setting [6]), 27 mg/kg in data set [3] (setting [7]) and 4.5 mg/kg in data set [3] (setting [8]). The “PT … Mouse Writhing, Oral” value in data set [2] (oral) is 45 min. In addition, the “PT … Mouse Writhing, Subcutaneous” value in data set [2] (subcutaneous) is 15 min. In addition, the “PT … Rat Tail Jerk, Oral” value in data set [3] (oral) came out at 15 min. Further, in data set [3] (subcutaneous), the “PT … Rat Tail Jerk, Subcutaneous” value was 15 min.

The values above are taken from patent US3962269A, “1,3-Propandiol intermediates” (Eli Lilly and Company, priority 1975, dated 1976).
